Measured values from US20220194952A1, “TETRAPYRROLIC CONJUGATES AND USES THEREOF FOR IMAGING” (Health Research, Inc., priority 2019, published 2022).

How the values were obtained:
[1] = Singlet oxygen phosphorescence at 1270 nm, methanol, pulsed laser 532 nm; format: physicochemical; settings: near 5 μM, equi-absorbant at 532 nm, excited at 532 nm
Protocol: The photosensitizers, e. g., HPPH (control), 2 and 4 were individually dissolved in methanol (concentration: 5 μM) in polystyrene cuvettes and excited at 532 nm using a pulsed laser. Phosphorescence of singlet oxygen was detected at 1270 nm.
Before evaluating the imaging and photosensitizing potential of the chlorin 4 with extended ring system, its singlet oxygen producing ability was compared with the related chlorin 2. In brief, both compounds were individually dissolved in methanol in equi-absorbant (at 532 nm) concentrations near 5 μM and excited at 532 nm using a pulsed laser. The phosphorescence of singlet oxygen was detected at 1270 nm. From the results summarized in FIG. 4, it can be seen that compared to chlorin 2 with a five-member isocyclic ring, the related analog 4 with an extended ring system had remarkably lower singlet oxygen producing ability. Singlet oxygen quantum yields were φ=0.29 and φ=0.02 respectively, compared to HPPH φ=0.45.

[2] = Nanosecond laser flash transient absorption of triplet excited state in PhCN; format: physicochemical
Protocol: The decay time profiles at 580 nm in (b) argon- and (c) air-saturated PhCN. The single-exponential fitting curves are shown as gray lines.
Singlet oxygen is generated by energy transfer from the triplet excited state of 4 to molecular oxygen (O2). […] The decay profile of T-T absorption was obeyed with the single exponential curve (FIG. 6b). The lifetime was determined to be τ=38 μs. […] The energy transfer rate constant was determined to be 1.4×10^9M^−1 s^−1, indicating the efficient energy transfer occurred between the triplet excited state of 4 and O2 to for singlet oxygen generation.
Instrumentation: Measurement of fluorescence quantum yields were carried out on a Hamamatsu C9920-0X(PMA-12) U6039-05 fluorescence spectrofluorometer. Femtosecond laser flash photolysis was conducted using a Clark-MXR 2010 laser system and an optical detection system provided by Ultrafast Systems (Helios). The source for the pump and probe pulses were derived from the fundamental output of Clark laser system (775 nm, 1 mJ pulse-1 and fwhm=150 fs) at a repetition rate of 1 kHz. A second harmonic generator introduced in the path of the laser beam provided […] laser pulses for excitation. A 95% of the fundamental output of the laser was used to generate the second harmonic, while 5% of the deflected output was used for white light generation. Prior to generating the probe continuum, the laser pulse was fed to a delay line that provided an experimental time window of 1.6 ns with a maximum step resolution of 7 fs. The pump beam was attenuated at 5 μJ pulse-1 with a spot size of 2 mm diameter at the sample cell where it was merged with the white probe pulse in a close angle (<10°). […] The photodynamics were monitored by continuous exposure to a xenon lamp for visible region and halogen lamp for near-IR region as a probe light and a photomultiplier tube (Hamamatsu 2949) as a detector.

[3] = Photobleaching in 17% bovine calf serum; format: physicochemical; settings: 17% BCS, dye laser 75 mW/cm^2, 785 nm for 4
Protocol: Photobleaching was performed in quartz cuvettes on a 5 μM solution of 2 and a 25 μM solution of 4 in 17% BCS. The higher molarity was chosen to approximate the absorbance of 2 at 5 μM. A dye laser was used at dose rate 75 mW/cm^2, and excitation wavelength for 2 was 660 nm and for 4 was 785 nm.
In photodynamic therapy, photobleaching is the photochemical alteration of a chromophore or a fluorophore molecule such that could either permanently is unable to fluoresce or alter its fluorescence characteristics. This is caused by cleaving of the covalent bonds or non-specific reaction between the reactive oxygen species (e.g., singlet oxygen) and the molecule. These […] species formed by conversion of the molecular oxygen present in tumor to singlet oxygen by exposing the photosensitizer with light at an appropriate wavelength. The rate of photobleaching of the PS should depend (a) availability of oxygen, (b) photostability of PS and finally (c) the singlet oxygen (or other reactive oxygen species) producing ability of the PS.
To investigate the photobleaching characteristics of the photosensitizers, compounds 2 and 4 in equimolar concentrations (5 μM) were taken in quartz cuvettes in 17% bovine calf serum. Dye lasers with appropriate wavelength (2: 660 nm and 4: 785 nm) were used at a dose rate of 75 mW/cm^2. Both the compounds in formulated forms were irradiated with light and the absorption spectra at their long wavelength absorptions were measured with time. The decay in absorbance was plotted against the time of light exposure.

Colon26 tumors = assay: In vivo whole body tumor fluorescence imaging (IVIS Spectrum); set-up: species or system BALB/c mice; settings: non-radioactive analogs, i.v., post-injection
Protocol: Before evaluating in vivo PDT efficacy of PS 4 by exposing the tumors with light, the time point for optimal tumor uptake of PS was determined by whole body fluorescence imaging of tumored mice at various time points after injecting the PS.
The multi-spectral imaging system, IVIS Spectrum (Perkin-Elmer) along with Living Image (image acquisition and analysis software) was used. IVIS Spectrum has the capability to use either trans-illumination (from the bottom) or epi-illumination (from the top) to illuminate in vivo fluorescent sources. […] Regions of interest (ROI) were defined for areas of compound accumulation (tumor, liver, skin) and total and average signal within the region were recorded. Fluorescent intensity is expressed as the total radiant efficiency ([p/s]/[μW/cm^2]. Results are expressed as mean total radiant efficiency of three mice±SD.

methyl 3-[1′-(m-iodobenzyloxy)ethyl]-3-devinyl-13^3-keto-13^2-methoxycyclohexene [Compound 4]
Singlet oxygen quantum yield φ [1]: 0.02 | energy transfer rate constant, triplet excited state to O2 ([2]; PhCN): 1.4e+09 M⁻¹ s⁻¹ | triplet decay rate constant in the presence of dissolved O2 ([2]; air-saturated PhCN): 2.3e+06 s⁻¹ | triplet excited state lifetime τ ([2]; deaerated (argon-saturated) PhCN, T-T absorption decay at 580 nm): 38 μs | photobleaching (in words) [3]: negligible photobleaching | time of optimal uptake in tumor (fluorescence imaging) (Colon26 tumors): 24 h
